{
  "source": "patent US8841285B2",
  "about": "“Potent immunosuppressive agents, derivatives and uses” (priority 2002, dated 2014)",
  "key": {"[1]": {"tested_on": "mixed lymphocyte reaction", "settings": "read-out: IC50 in MLR (mixed lymphocyte reaction) assay; cited from earlier work"}, "[2]": {"tested_on": "cap-dependent translation", "assay": "in vitro translation in RRL, bicistronic reporter, cap-dependent cistron", "format": "biochemical, rabbit", "procedure": "(§1) In vitro Translation and Transcription. pSP/(CAG)33/FF/HCV/Ren·pA51 and pKS/FF/EMC/Ren were linearized by BamHI, then purified by phenol:chloroform extraction and ethanol precipitation, and dissolved in water. pSP/(CAG)33/FF/HCV/Ren·A51 and pKS/FF/EMC/Ren were individually transcribed using a large scale RNA production system in the presence of m7Gppp cap analog followed by incubation with DNase as described by the manufacturer. Resulting RNA was purified using a kit as described by the manufacturer. Translation was performed using a rabbit reticulocyte lysate system as per instructions. Briefly, 200 ng of purified RNA was combined in a 20 μl reaction containing 10 μl RRL, 0.2 μl each of minus Met and minus Leu amino acid mixtures, 70 mM KCl, 2 mM DTT, 1× translation buffer, and 10 units of RNasin. Compounds or DMSO were added to a final DMSO concentration of 2%. Reactions were incubated at 30° C. for 1.5 h, then 5 μl of the reaction mixture was assayed for luciferase activity as per instructions of luciferas reporter assay system."}, "skin graft": {"tested_on": "skin graft", "settings": "cited from earlier work"}, "[3]": {"tested_on": "EMCV IRES mediated initiation", "assay": "in vitro translation in RRL, EMCV IRES cistron", "format": "biochemical, rabbit", "settings": "EMCV IRES bicistronic reporter", "procedure": "as §1"}, "MCF-7 cells": {"tested_on": "MCF-7 cells", "assay": "cell proliferation assay, MCF-7 cells", "format": "cell-based", "settings": "MCF-7 cells (FIG. 13)", "procedure": "Cell Proliferation Assay. 1×10^5 of indicated cells in each well of a 96-well plate were treated with indicated compounds for 24 h followed by addition of 0.11 μCi of [^3H]-thymidine (6.7 Ci/mmol) per well for 6 h, followed by harvesting to GF/C filtermats using a cell harvester. Filtermats were air-dried and scintillation counted. IC50s were determined from quadruplicate data readings and curve-fitting analysis."}, "eIF4AI": {"target": "T1, eIF4AI (Homo sapiens, UniProt P60842)", "T1 construct": "The entire ORF of human eIF4AI was ligated in-frame into the BamHI and HindIII sites of the pET-28a expression vector; 6XHis (N); made in house; host or cells: E. coli BL21(DE3)", "T1 sequence (P60842 whole entry)": "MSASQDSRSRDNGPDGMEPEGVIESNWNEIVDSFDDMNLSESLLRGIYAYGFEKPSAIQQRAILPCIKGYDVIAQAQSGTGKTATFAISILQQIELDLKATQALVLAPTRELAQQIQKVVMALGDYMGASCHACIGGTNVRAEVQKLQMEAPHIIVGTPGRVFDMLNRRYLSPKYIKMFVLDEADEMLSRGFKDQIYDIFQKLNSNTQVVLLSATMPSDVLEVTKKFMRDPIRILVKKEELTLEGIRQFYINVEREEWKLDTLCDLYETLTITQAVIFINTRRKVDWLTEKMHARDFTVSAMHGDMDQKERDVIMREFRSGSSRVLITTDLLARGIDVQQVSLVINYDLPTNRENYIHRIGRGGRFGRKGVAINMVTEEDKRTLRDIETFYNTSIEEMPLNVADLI", "assay": "ATP-dependent RNA helicase activity of 6XHis-eIF4AI", "format": "biochemical", "procedure": "Recombinant proteins. The entire ORF of human eIF4AI was ligated in-frame into the BamHI and HindIII sites of the pET-28a expression vector after PCR amplification from HeLa cells. Protein was produced in BL21(DE3) E. coli cultured in LB medium by induction with 1 mM IPTG for 6 h at 37° C. Cells were lysed by sonication and protein was purified using Ni-NTA resin as described by the manufacturer. For pET(His6-eIF4B), induction conditions were for 72 h at 16° C. Purification included a 1 ml Heparin column with a linear KCl gradient (50-500 mM).\nATPase and Helicase. ATPase activity was performed as described (Korneeva et al., 2005) with minor modifications. Reactions contained 2.5% DMSO, 6XHis-eIF4AI concentration was 0.56 μM, and reaction time was 10 min at 37° C. in buffer: 20 mM Tris-HCl, pH 7.5, 0.5 mM MgCl2, 100 mM KCl, 2 mM DTT, 0.1% (v/v) Tween 20, 10% (v/v) glycerol, 1 mg/ml BSA, and reactions were supplemented with 3-5 μCi of [γ-^32P]-ATP (6000 Ci/mmol). Saturating poly(U) concentrations were 1239 μM (nucleotides/20). Released phosphate was visualized on 15% native TBE polyacrylamide gels followed by autoradiography of wet gels (30 min exposure). Film was aligned with gels and spots were excised and ^32P levels were quantified by scintillation counting. Km and Vmax were determined by curve fitting. […]"}},
  "note": "Where two headings read alike, the source gives them in different places.",
  "data": [
    {"smiles": "CC(/C=C/C(C)=C/[C@@H]1Cc2nc(cs2)[C@@H](C)C[C@@H](N)CC(=O)O[C@@H](C)C/C(C)=C/C=C\\C(=O)O1)=C\\CN(C)C", "note": "[Pat A (1), Pateamine A]", "values": [
      {"measurement": "IC50", "setting": "[1]", "value": 2.6, "unit": "nM"},
      {"measurement": "inhibition of cap-dependent translation", "setting": "[2]; 100 nM, HCV IRES bicistronic reporter", "value": "nearly completely inhibited"},
      {"measurement": "IC50", "setting": "[2]; EMCV IRES bicistronic reporter, read-out: IC50, cap-dependent initiation", "value": "~88", "unit": "nM"},
      {"measurement": "IC50", "setting": "[2]; HCV IRES bicistronic reporter, read-out: IC50, cap-dependent translation", "value": "~20", "unit": "nM"},
      {"measurement": "activity in skin graft rejection assay", "setting": "skin graft; all doses", "value": "All doses were active"},
      {"measurement": "toxicity", "setting": "skin graft; at high doses", "value": 17, "unit": "%"},
      {"measurement": "survival period of the skin graft", "setting": "skin graft; mouse skin graft rejection", "value": 15, "unit": "days"},
      {"measurement": "toxicity", "setting": "skin graft; other dose levels", "value": "no toxicity"},
      {"measurement": "IC50", "setting": "[3]", "value": "~54", "unit": "nM"},
      {"measurement": "reversibility of antiproliferative effect", "setting": "MCF-7 cells", "value": "irreversible"}
    ]},
    {"smiles": "CC(/C=C/C(C)=C/[C@@H]1Cc2nc(cs2)CCCCC(=O)O[C@@H](C)C/C(C)=C/C=C\\C(=O)O1)=C\\CN(C)C", "note": "[compound 3, desmethyl, desamino-pateamine A]", "values": [
      {"measurement": "effect on helicase activity of eIF4A and 4B", "setting": "eIF4AI; in the presence of 6XHis-4B", "value": "further stimulated"},
      {"measurement": "effect on ATP-dependent RNA helicase activity of eIF4AI", "setting": "eIF4AI; with ATP", "value": "dramatically increased"}
    ]}
  ]
}
